Measurements: patent US7034047B2, “Triazole derivative” (Astellas Pharma, Inc., priority 2000, dated 2006)

molecular target: T1, GLYT1 subtype of the glycine transporter (Rattus norvegicus, UniProt P28572); experiment: [3H]-glycine uptake assay in C6 glioma cells (action of inhibiting glycine transporter); format: cell-based; settings: 20 min at 37° C., read-out: GLYT-inhibiting activity IC50
T1 construct: C6 glioma cell expressing GLYT1 subtype of the glycine transporter; host or cells: C6 glioma cells
T1 sequence (P28572 1-638): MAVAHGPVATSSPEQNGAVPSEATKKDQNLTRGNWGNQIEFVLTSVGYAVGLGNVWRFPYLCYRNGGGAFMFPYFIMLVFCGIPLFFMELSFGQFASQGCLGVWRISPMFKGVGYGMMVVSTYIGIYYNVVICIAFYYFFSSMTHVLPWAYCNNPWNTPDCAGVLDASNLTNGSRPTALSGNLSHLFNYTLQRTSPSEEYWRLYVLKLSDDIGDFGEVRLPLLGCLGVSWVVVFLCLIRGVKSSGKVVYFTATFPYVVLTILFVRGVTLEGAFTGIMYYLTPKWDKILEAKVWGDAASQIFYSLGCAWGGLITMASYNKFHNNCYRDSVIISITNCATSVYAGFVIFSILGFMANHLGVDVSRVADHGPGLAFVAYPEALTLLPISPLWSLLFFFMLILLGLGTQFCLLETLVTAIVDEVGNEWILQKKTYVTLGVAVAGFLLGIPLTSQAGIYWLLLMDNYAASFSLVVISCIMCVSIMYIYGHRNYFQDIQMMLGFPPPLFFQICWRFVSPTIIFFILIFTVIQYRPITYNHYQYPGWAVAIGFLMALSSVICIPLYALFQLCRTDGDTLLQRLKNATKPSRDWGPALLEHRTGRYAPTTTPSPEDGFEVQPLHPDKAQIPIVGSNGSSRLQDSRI
Experimental: 1. Action of Inhibiting Glycine Transporter
C6 glioma cell (American Type Culture Collection) was cultured in DMEM containing 10% fetal bovine serum, 100 units/ml penicillin G and 0.1 mg/ml streptomycin sulfate in a CO2 incubator under conditions of 5% CO2 and 37° C.
[^3H]-glycine uptake was performed by the method of Gomeza, et al.
C6 glioma cells were plated out at a concentration of 2×10^4 cells/well in a 96-well plate (Culturplate, Packard Co.), for culturing for 2 days. Subsequently, [^3H]-glycine uptake was tested. The cell was rinsed once in a buffer (150 mM NaCl, 5 mM KCl, 1 mM CaCl2, 1 mM MgCl2, 10 mM glucose, 5 mM L-alanine, 10 mM Hepes-Na, pH 7.4), followed by subsequent addition of the buffer, for incubation at 37° C. for 10 minutes.
After incubation, the buffer was exchanged to a reaction buffer including [^3H]-glycine (about 0.2 μM, 41 Ci/mmol, New England Nuclear)and a compound to be assessed, for incubation at 37° C. for another 20 minutes. After 20-min reaction, the reaction mixture was rinsed in ice-cold PBS (phosphate buffered saline). The cell was dissolved in 0.1N NaOH solution, to assay the radioactivity incorporated with a liquid scintillation counter. The specific incorporation was defined as a portion substituted with 3 mM sarcosine in the total incorporation. The test compound was assessed by determining the incorporation-inhibiting ratio of the specific incorporation.

First: COc1ccccc1-n1c(C)nnc1-c1ccc(-c2ccccc2)cc1 [Compound 1, 3-(biphenyl-4-yl)-4-(2-methoxyphenyl)-5-methyl-4H-1,2,4-triazole, reference compound]
Second: CCc1nnc(-c2ccc(-c3ccccc3)cc2)n1-c1ccccc1OC [Compound 3, 3-(biphenyl-4-yl)-5-ethyl-4-(2-methoxyphenyl)-4H-1,2,4-triazole, reference compound]
The IC50 of the first is 2.9-fold higher: 1000 nM for the first, 350 nM for the second.

Compared with `c1ccc(-c2ccc(-c3nnc(-c4ccco4)n3-c3ccccc3)cc2)cc1` [Compound 2, 3-(biphenyl-4-yl)-5-(furan-2-yl)-4-phenyl-4H-1,2,4-triazole, reference compound], `Cc1nnc(-c2ccc(-c3ccccc3)cc2)n1-c1ccccc1[N+](=O)[O-]` [Example 256] is 53-fold lower in IC50: 4600 nM for the first, 86 nM for the second.

First: CC(C)c1nnc(-c2ccc(-c3ccccc3)nc2)n1-c1c(F)cccc1F [Example 1, 5-[4-(2,6-Difluorophenyl)-5-isopropyl-4H-triazol-3-yl]-2-phenylpyridine]
Second: CC(C)c1nnc(-c2cnc(-c3ccccc3)c(Cl)c2)n1-c1c(F)cccc1F [Example 112]
The IC50 of the first is 7.1-fold lower: 140 nM for the first, 1000 nM for the second. The first is the more potent here.

Compared with `CC(C)c1nnc(-c2ccc(-c3ccccc3)nc2)n1-c1cccc2nonc12` [Example 2, 4-[3-Isopropyl 5-(6-phenylpyridin-3-yl)-4H-1,2,4-triazol-4-yl]-2,1,3-benzooxadiazole], `COCCN(C)c1nnc(-c2ccc(-c3ccccc3)nc2)n1-c1cccc2nonc12` [Example 9, 4-(2,1,3-Benzooxadiazol-4-yl)-N-(2-methoxyethyl)-N-methyl-5-(6-phenylpyridin-3-yl)-4H-1,2,4-triazol-3-ylamine] is 3.3-fold higher in IC50: 100 nM for the first, 330 nM for the second. The first is the more potent here.

First: COCCCc1nnc(-c2ccc(-c3ccccc3)nc2)n1-c1cccc(C#N)c1C [Example 5, 3-[3-(3-Methoxypropyl)-5-(6-phenylpyridin-3-yl)-4H-1,2,4-triazol-4-yl]-2-methylbenzonitrile]
Second: COCCN(C)c1nnc(-c2ccc(-c3ccccc3)nc2)n1-c1ccccc1C#N [Example 8, 2-{3-[N-(2-Methoxyethyl)-N-methylamino]-5-(6-phenylpyridin-3-yl)-4H-1,2,4-triazol-4-yl}benzonitrile]
The IC50 of the first is 1.6-fold higher: 410 nM for the first, 250 nM for the second. The second is the more potent here.

Compared with `Cc1nnc(-c2ccc(-c3cccs3)cc2)n1-c1ccccc1F` [Example 10, 4-(2-Fluorophenyl)-3-methyl-5-(4-thiophen-2-ylphenyl)-4H-1,2,4-triazole], `Fc1ccccc1-n1c(CN2CCc3sccc3C2)nnc1-c1ccc(-c2ccccc2)cc1` [Example 202] is 8-fold higher in IC50: 200 nM for the first, 1600 nM for the second.

First: CN(CCCSc1nnc(-c2ccc(-c3ccccc3)cc2)n1-c1ccccc1F)CC(=O)O [Example 157]
Second: CN(CC1CCCO1)c1nnc(-c2ccc(-c3ccccc3)cc2)n1-c1ccccc1F (stereo not shown) [Example 236]
The IC50 of the first is 1.6-fold higher: 1500 nM for the first, 940 nM for the second. The second is the more potent here.

`CCc1nnc(-c2ccc(-c3ccccc3)cc2)n1-c1ccccc1Oc1cccnc1` [Example 279] showed an IC50 of 4600 nM.

system: not given; experiment: not given; settings: not given

Compound `CSc1nnc(-c2ccc(-c3ccccc3)cc2)n1-c1ccccc1F` [Example 12, 3-Biphenyl-4-yl-4-(2-fluorophenyl)-5-methylsulfanyl-4H-1,2,4-triazole] has a melting point of 199 to 200 °C.
